In PubChem BioAssay (NCI):
“And” between values parts separate entries of the source, which are not always exact repeats. Identical values can stand only once.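 Assay format: 96-well plates, 48-hour exposure. Here, GI50 denotes the concentration required for 50% inhibition of growth. At the TGI there is no net growth.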

How the values were obtained:
Experiment in all cases: NCI-60 cell line screen, 48 h
[1] = tested on: NCI-H23 lung
[2] = tested on: NCI-H460 lung
[3] = tested on: NCI-H522 lung
[4] = tested on: NCI/ADR-RES ovarian
[5] = tested on: OVCAR-3 ovarian
[6] = tested on: OVCAR-4 ovarian
[7] = tested on: OVCAR-5 ovarian
[8] = tested on: OVCAR-8 ovarian
[9] = tested on: PC-3 prostate
[10] = tested on: RPMI-8226 leukemia
[11] = tested on: RXF 393 renal
[12] = tested on: SF-268 CNS
[13] = tested on: SF-295 CNS
[14] = tested on: SF-539 CNS
[15] = tested on: SK-MEL-2 melanoma
[16] = tested on: SK-MEL-28 melanoma
[17] = tested on: SK-MEL-5 melanoma
[18] = tested on: SK-OV-3 ovarian
[19] = tested on: SN12C renal
[20] = tested on: SNB-19 CNS
[21] = tested on: SNB-75 CNS
[22] = tested on: SR leukemia
[23] = tested on: SW-620 colon
[24] = tested on: T-47D breast
[25] = tested on: TK-10 renal
[26] = tested on: U251 CNS
[27] = tested on: UACC-62 melanoma
[28] = tested on: UO-31 renal

In the case of Nc1cc(-c2cccc(OC(F)(F)F)c2)nc2ccc(N3CCCC3)cc12, the GI50 [1] is reported as 71.6 nM and 80.3 nM and 60.9 nM, the TGI [1] is reported as 43100 nM and > 100000 nM and the GI50 [2] is reported as 35.4 nM and 35.9 nM. For the same molecule, the TGI [2] was 12500 nM and > 100000 nM, the GI50 [3] was 39.4 nM and 35.1 nM and 29.7 nM and the TGI [3] was 986 nM. The GI50 [4] was 36.2 nM and 36.3 nM and 32.4 nM, the TGI [4] was 20000 nM and > 100000 nM and the GI50 [5] was 31.8 nM and 28.8 nM and 27.3 nM. The GI50 [6] was 519 nM and 1160 nM and 1590 nM, the TGI [6] was greater than 100000 nM and the GI50 [7] was 113 nM and 84.3 nM and 68.7 nM. The TGI [7] was 99200 nM and > 100000 nM, the GI50 [8] was 54.7 nM and 49.7 nM and 45.9 nM and the TGI [8] was 32600 nM and > 100000 nM. The GI50 [9] was 45.5 nM and 42.9 nM and 37.2 nM, the TGI [9] was 26900 nM and > 100000 nM and the GI50 [10] was 47.9 nM and 40.4 nM and 44.7 nM. The TGI [10] was 7320 nM and > 33200 nM and > 64900 nM, the GI50 [11] was 47.4 nM and 37.6 nM and 30.5 nM and the TGI [11] was 16400 nM and > 100000 nM and > 53500 nM. For the same molecule, the GI50 [12] was 81.9 nM and 83.7 nM and 78.4 nM, the TGI [12] was 22000 nM and > 100000 nM and the GI50 [13] was 58.4 nM and 47.3 nM and 44.8 nM. The TGI [13] was 5610 nM and 18900 nM and > 50500 nM, the GI50 [14] was 35.8 nM and 37.2 nM and 35.4 nM and the TGI [14] was 1240 nM and 1540 nM and 1420 nM. For the same molecule, the GI50 [15] was 400 nM and 88.7 nM and 787 nM, the TGI [15] was 12800 nM and > 100000 nM and the GI50 [16] was 1460 nM and 3070 nM and 3910 nM. The GI50 [17] was 42 nM and 39.4 nM and 34.8 nM, the TGI [17] was 621 nM and 670 nM and 361 nM and the GI50 [18] was 71 nM and 45.6 nM and 40.6 nM. The TGI [18] was greater than 100000 nM, the GI50 [19] was 113 nM and 71.6 nM and 69.2 nM and the TGI [19] was 19700 nM and > 100000 nM. The GI50 [20] was 45.8 nM and 43.1 nM and 43.7 nM, the TGI [20] was 26900 nM and > 100000 nM and the GI50 [21] was 42.7 nM and 52.5 nM and 49.5 nM. For the same molecule, the TGI [21] was 12200 nM and > 100000 nM and > 64400 nM, the GI50 [22] was 27.5 nM and 15.4 nM and 13.5 nM and the GI50 [23] was 43.5 nM and 41.3 nM and 36.6 nM. The TGI [23] was 22100 nM and > 100000 nM, the GI50 [24] was 18800 nM and the TGI [24] was 92400 nM. The GI50 [25] was 9570 nM and 13000 nM and > 23500 nM, the TGI [25] was 34600 nM and > 100000 nM and the GI50 [26] was 41 nM and 39.1 nM and 37.1 nM. The GI50 [27] was 71.8 nM and 48 nM and 60.3 nM, the TGI [27] was 15800 nM and > 100000 nM and the GI50 [28] was 119 nM and 150 nM and 75.8 nM. For the same molecule, the TGI [28] was 17700 nM and > 100000 nM.
